Measurements reported in patent US20250289804A1, “SUBSTITUTED INDOLE COMPOUNDS AND METHODS OF USE THEREOF” (NOVARTIS PHARMA AG, priority 2021, published 2025).
Where two headings read alike, the source gives them in different places.

Assays:
human C3bBb = human C3bBb (Homo sapiens (Human), UniProt P00751); test: Human C3bBb enzyme assay (C3a generation from C3, ELISA); type: biochemical
Method: Compounds disclosed herein were evaluated for their potency to inhibit human C3bBb in a biochemical assay. To generate active C3bBb complex in vitro, purified human C3b (Complement Technology, A114), CFB (Complement Technology, A135) and CFD (Complement Technology, A136) were mixed in a 1:1:1 ratio to a final concentration of 1 μM each in the C3bBb assay buffer (PBS pH 7.4, 100 μM NiCl2, 0.05% (w/v) CHAPS). The reaction mix was incubated at room temperature for 30 minutes on a rotating platform. […] On the day of the enzyme assay, a reaction mixture containing 3 nM C3bBb complex and 1 μM purified human C3 (Complement Technology, A113) was prepared in the C3bBb assay buffer. Compounds were serial diluted 3-fold in 100% DMSO for a 10-point dose-response curve. A 0.5 μL aliquot of diluted compound solution was transferred to a conical bottom 96-well plate, before 49.5 μL of the reaction mix was added to each well to initiate the reaction. The plate was incubated for 1 hour at room temperature. […] The generation of C3a from C3 by the C3bBb complex was measured using the MicroVue C3a Plus EIA ELISA kit (Quidel, A031). The concentration of C3a from each well was calculated using a standard curve. Percent inhibition values were generated using the baseline (C3 only) and the maximum control (DMSO instead of compound), and IC50 of each compound was calculated using 4-parameter logistic regression.

[1] = system: MAC formation in normal human serum; test: Human serum MAC formation assay (zymosan-coated plates, 50% normal human serum); conditions: 50% normal human serum with EGTA, 37° C. 30 minutes
Method: MAC deposition assay using normal human serum was applied to evaluate compound potency under physiologically relevant conditions. Black Maxisorp plates (Thermo Fisher, 437111) were coated with preactivated zymosan (Complement Technology, B400) at 0.5 mg/mL in carbonate buffer (pH 9.5, Sigma, C3041) at room temperature overnight. Compounds were serial diluted 3-fold in 100% DMSO for a 10-point dose-response curve. Normal human serum (Complement Technology, NHS) was diluted to 50% (v/v) with the gelatin buffer (4.2 mM HEPES pH 7.4, 0.15 mM CaCl2, 141 mM NaCl, 4.5 mM MgCl2, 0.1% gelatin) containing 20 mM EGTA or 20 mM EDTA. In conical bottom 96-well plates, 1 μL compound and 99 μL of serum-EGTA were mixed. Serum-EDTA was used as baseline control. The serum-compound mixture was incubated at room temperature for 15 minutes before being transferred to the washed zymosan plate for complement activation at 37° C. for 30 minutes. The reaction was terminated by decanting the reaction mixture and adding blocking buffer (Thermo Fisher, 37539) for 20 minutes. MAC formation on the ELISA plate was detected using 0.2 μg/mL mouse anti-human C9 neoepitope monoclonal antibody (Thermo Fisher, MA5-33373) diluted in phosphate-buffered saline with 0.05% Tween-20 (PBST). A goat anti-mouse IgG-HRP antibody (Thermo Fisher, A16072) was used at 1:2000 in PBST as secondary antibody. After washing, the reaction was developed using QuantaBlu (Thermo Fisher, 15169) for 20 minutes at room temperature. The plates were read at 325 nm excitation and 420 nm emission wavelengths. Percent inhibition values were generated using the baseline (EDTA-serum) and the maximum control (EGTA-serum). An IC50 for each compound was calculated using 4-parameter logistic regression.

[2] = starred values: assay conducted with 1 nM C3b:Bb enzyme, read-out: Human C3b:Bb IC50 Avg
[3] = 3 nM C3bBb complex, 1 μM human C3, 1 hour room temperature, read-out: Human C3b:Bb IC50 Avg

Sequence of human C3bBb (P00751 260-764): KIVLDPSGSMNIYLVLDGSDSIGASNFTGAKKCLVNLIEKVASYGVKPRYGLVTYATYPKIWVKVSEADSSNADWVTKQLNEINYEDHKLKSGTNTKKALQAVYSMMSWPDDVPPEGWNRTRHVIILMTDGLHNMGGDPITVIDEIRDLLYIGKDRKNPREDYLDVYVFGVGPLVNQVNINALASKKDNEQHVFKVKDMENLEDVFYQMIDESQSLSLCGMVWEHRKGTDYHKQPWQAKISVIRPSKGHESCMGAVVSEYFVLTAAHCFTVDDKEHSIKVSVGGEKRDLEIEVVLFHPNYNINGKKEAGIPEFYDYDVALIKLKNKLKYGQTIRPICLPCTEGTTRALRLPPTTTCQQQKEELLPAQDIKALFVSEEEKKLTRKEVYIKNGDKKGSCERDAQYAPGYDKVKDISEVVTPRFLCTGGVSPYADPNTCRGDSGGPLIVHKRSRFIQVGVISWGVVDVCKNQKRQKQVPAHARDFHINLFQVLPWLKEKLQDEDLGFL
Sequence of human C3bBb (P01024 23-667 partner): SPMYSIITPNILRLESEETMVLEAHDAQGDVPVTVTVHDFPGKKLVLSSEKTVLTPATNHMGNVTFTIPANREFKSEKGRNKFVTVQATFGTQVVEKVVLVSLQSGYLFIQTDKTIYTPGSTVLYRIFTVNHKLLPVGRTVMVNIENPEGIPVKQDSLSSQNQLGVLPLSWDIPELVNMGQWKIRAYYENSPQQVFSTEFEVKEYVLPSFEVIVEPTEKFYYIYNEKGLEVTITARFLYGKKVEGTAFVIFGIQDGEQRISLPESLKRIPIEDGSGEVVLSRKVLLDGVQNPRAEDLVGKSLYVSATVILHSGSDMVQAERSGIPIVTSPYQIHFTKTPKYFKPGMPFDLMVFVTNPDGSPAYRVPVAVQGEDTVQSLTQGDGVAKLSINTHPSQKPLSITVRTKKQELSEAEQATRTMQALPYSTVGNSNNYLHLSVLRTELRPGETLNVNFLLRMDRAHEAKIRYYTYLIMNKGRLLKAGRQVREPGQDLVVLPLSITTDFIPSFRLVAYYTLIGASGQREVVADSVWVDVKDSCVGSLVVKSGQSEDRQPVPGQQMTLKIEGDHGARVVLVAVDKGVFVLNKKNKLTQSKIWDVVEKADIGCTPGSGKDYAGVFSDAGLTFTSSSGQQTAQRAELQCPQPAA
Sequence of human C3bBb (P01024 749-1663 partner): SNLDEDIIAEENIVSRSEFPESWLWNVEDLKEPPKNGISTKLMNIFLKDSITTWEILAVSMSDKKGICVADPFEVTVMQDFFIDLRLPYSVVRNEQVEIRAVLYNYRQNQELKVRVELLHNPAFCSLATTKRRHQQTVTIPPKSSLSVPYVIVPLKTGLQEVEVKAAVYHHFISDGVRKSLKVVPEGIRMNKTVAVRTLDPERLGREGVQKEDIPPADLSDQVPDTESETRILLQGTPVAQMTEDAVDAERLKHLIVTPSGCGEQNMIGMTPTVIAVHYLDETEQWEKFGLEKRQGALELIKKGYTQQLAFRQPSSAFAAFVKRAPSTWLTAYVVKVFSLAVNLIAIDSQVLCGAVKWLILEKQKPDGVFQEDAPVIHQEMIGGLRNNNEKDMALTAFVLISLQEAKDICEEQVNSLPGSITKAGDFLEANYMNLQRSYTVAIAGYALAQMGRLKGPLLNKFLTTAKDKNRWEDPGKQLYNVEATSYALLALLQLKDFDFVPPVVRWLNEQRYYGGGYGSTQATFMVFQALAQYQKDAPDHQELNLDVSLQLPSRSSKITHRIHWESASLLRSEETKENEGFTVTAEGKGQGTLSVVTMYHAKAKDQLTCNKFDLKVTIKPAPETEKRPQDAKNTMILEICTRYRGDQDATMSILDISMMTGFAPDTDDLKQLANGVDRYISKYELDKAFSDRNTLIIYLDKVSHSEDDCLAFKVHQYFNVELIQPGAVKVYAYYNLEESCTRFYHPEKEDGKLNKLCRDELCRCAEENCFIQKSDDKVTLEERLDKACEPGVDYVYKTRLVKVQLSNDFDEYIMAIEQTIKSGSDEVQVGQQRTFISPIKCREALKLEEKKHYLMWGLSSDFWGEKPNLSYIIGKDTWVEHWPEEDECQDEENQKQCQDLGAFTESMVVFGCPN

Compound	IC50 (human C3bBb; [2])	IC50 (human C3bBb; [3])	IC50 [1]	IC50 (human C3bBb; Human C3b:Bb IC50 Avg (nM), 3 nM C3bBb complex, 1 μM human C3, 1 hour room temperature)
COc1cc(C)c2[nH]ccc2c1CN1CC[C@H](n2cc(Br)cn2)C[C@H]1c1ccc(C(=O)O)cc1 (racemic) [Example 2, (±)-trans-4-(4-(4-bromo-1H-pyrazol-1-yl)-1-((5-methoxy-7-methyl-1H-indol-4-yl)methyl)piperidin-2-yl)benzoic acid]		50 to 100 nM	300 to 500 nM	
COc1cc(C)c2[nH]ccc2c1CN1CC[C@H](n2cncn2)C[C@H]1c1ccc(C(=O)O)cc1 (racemic) [Example 3, (±)-trans-4-(1-((5-methoxy-7-methyl-1H-indol-4-yl)methyl)-4-(1H-1,2,4-triazol-1-yl)piperidin-2-yl)benzoic acid]		10 to 25 nM	> 500 nM	
COc1cc(C)c2[nH]ccc2c1CN1CC[C@H](n2cnc(C(F)(F)F)n2)C[C@H]1c1ccc(C(=O)O)cc1 (racemic) [Example 5, (±)-trans-4-(1-((5-methoxy-7-methyl-1H-indol-4-yl)methyl)-4-(3-(trifluoromethyl)-1H-1,2,4-triazol-1-yl)piperidin-2-yl)benzoic acid]			> 500 nM	
COc1cc(C)c2[nH]ccc2c1CN1CC[C@H](n2cc3ccccc3n2)C[C@H]1c1ccc(C(=O)O)cc1 (racemic) [Example 6, (±)-trans-4-(4-(2H-indazol-2-yl)-1-((5-methoxy-7-methyl-1H-indol-4-yl)methyl)piperidin-2-yl)benzoic acid]			> 500 nM	
COc1cc(C)c2[nH]ccc2c1CN1CC[C@H](n2cc(C(F)F)cn2)C[C@H]1c1ccc(C(=O)O)cc1 (racemic) [Example 7, (±)-trans-4-(4-(4-(difluoromethyl)-1H-pyrazol-1-yl)-1-((5-methoxy-7-methyl-1H-indol-4-yl)methyl)piperidin-2-yl)benzoic acid]	< 10 nM		100 to 200 nM	
COc1cc(C)c2[nH]ccc2c1CN1CC[C@H](n2cccn2)C[C@H]1c1ccc(C(=O)O)cc1 (racemic) [Example 9, (±)-trans-4-(1-((5-methoxy-7-methyl-1H-indol-4-yl)methyl)-4-(1H-pyrazol-1-yl)piperidin-2-yl)benzoic acid]		> 100 nM	> 500 nM	
COc1cc(C)c2[nH]ccc2c1CN1CC[C@H](N2CCCC2=O)C[C@H]1c1ccc(C(=O)O)cc1 (racemic) [Example 12, (±)-trans-4-(1-((5-methoxy-7-methyl-1H-indol-4-yl)methyl)-4-(2-oxopyrrolidin-1-yl)piperidin-2-yl)benzoic acid]			300 to 500 nM	> 100 nM
COc1cc(C)c2[nH]ccc2c1CN1CC[C@H](NCC2(C(F)(F)F)CC2)C[C@H]1c1ccc(C(=O)O)cc1 [Example 27, 4-((2S,4S)-1-((5-methoxy-7-methyl-1H-indol-4-yl)methyl)-4-(((1-(trifluoromethyl)cyclopropyl)methyl)amino)piperidin-2-yl)benzoic acid]			100 to 200 nM	
COc1cc(C)c2[nH]ccc2c1CN1CC[C@H](C2CC2)C[C@H]1c1ccc(C(=O)O)cc1 [Example 41, 4-((2S,4S)-4-cyclopropyl-1-((5-methoxy-7-methyl-1H-indol-4-yl)methyl)piperidin-2-yl)benzoic acid]			100 to 200 nM	

The next lines start with results.

IC50 (human C3bBb; [2])	IC50 (human C3bBb; [3])	Compound	IC50 [1]	IC50 (human C3bBb; Human C3b:Bb IC50 Avg (nM), 3 nM C3bBb complex, 1 μM human C3, 1 hour room temperature)
50 to 100 nM		COc1cc(C)c2[nH]ccc2c1CN1CC[C@H](C2CCC2)C[C@H]1c1ccc(C(=O)O)cc1 (mixture of isomers) [Example 43, 4-((2S,4S)-4-cyclobutyl-1-((5-methoxy-7-methyl-1H-indol-4-yl)methyl)piperidin-2-yl)benzoic acid and 4-((2S,4R)-4-cyclobutyl-1-((5-methoxy-7-methyl-1H-indol-4-yl)methyl)piperidin-2-yl)benzoic acid]	> 500 nM	
	> 100 nM	COc1cc(C)c2[nH]ccc2c1CN1CC[C@H](n2cc(S(C)(=O)=O)cn2)C[C@H]1c1ccc(C(=O)O)cc1 (racemic) [Example 11, (±)-trans-4-(1-((5-methoxy-7-methyl-1H-indol-4-yl)methyl)-4-(4-methylsulfonyl)-1H-pyrazol-1-yl)piperidin-2-yl)benzoic acid]	> 500 nM	
	10 to 25 nM	COc1cc(C)c2[nH]ccc2c1CN1CC[C@H](NCC(F)(F)F)C[C@H]1c1ccc(C(=O)O)cc1 (racemic) [Example 14, (+)-trans-4-(1-((5-methoxy-7-methyl-1H-indol-4-yl)methyl)-4-((2,2,2-trifluoroethyl)amino)piperidin-2-yl)benzoic acid]	100 to 200 nM	
	> 100 nM	COc1cc(C)c2[nH]ccc2c1CN1CC[C@H](NS(N)(=O)=O)C[C@H]1c1ccc(C(=O)O)cc1 (racemic) [Example 16, (±)-trans-4-(1-((5-methoxy-7-methyl-1H-indol-4-yl)methyl)-4-(sulfamoylamino)piperidin-2-yl)benzoic acid]	300 to 500 nM	
	10 to 25 nM	COc1cc(C)c2[nH]ccc2c1CN1CC[C@H](NC2COC2)C[C@H]1c1ccc(C(=O)O)cc1 (racemic) [Example 17, (+)-trans-4-(1-((5-methoxy-7-methyl-1H-indol-4-yl)methyl)-4-(oxetan-3-ylamino)piperidin-2-yl)benzoic acid]	100 to 200 nM	
< 10 nM		COc1cc(C)c2[nH]ccc2c1CN1CCC2(COC2)CC1c1ccc(C(=O)O)cc1 (racemic) [Example 31, (±)-4-(7-((5-methoxy-7-methyl-1H-indol-4-yl)methyl)-2-oxa-7-azaspiro[3.5]nonan-6-yl)benzoic acid]	> 500 nM	
	> 100 nM	COc1cc(C)c2[nH]ccc2c1CN1CC[C@H](c2ccccc2)C[C@H]1c1ccc(C(=O)O)cc1 (racemic) [Example 37, (±)-trans-4-(1-((5-methoxy-7-methyl-1H-indol-4-yl)methyl)-4-phenylpiperidin-2-yl)benzoic acid]	> 500 nM	
	> 100 nM	COc1cc(C)c2[nH]ccc2c1CN1CC2(CCCC2)C1c1ccc(C(=O)O)cc1 (racemic) [Example 39, (±)-4-(2-((5-methoxy-7-methyl-1H-indol-4-yl)methyl)-2-azaspiro[3.4]octan-1-yl)benzoic acid]	300 to 500 nM	
< 10 nM		COc1cc(C)c2[nH]ccc2c1CN1CC[C@H](N2CC(C(F)(F)F)C2)C[C@H]1c1ccc(C(=O)O)cc1 (racemic) [Example 71, (±)-trans-4-1-((5-methoxy-7-methyl-1H-indol-4-yl)methyl)-4-(3-(trifluoromethyl)azetidin-1-yl)piperidin-2-yl)benzoic acid]	300 to 500 nM	
> 100 nM		COc1cc(C)c2[nH]ccc2c1CN1CC[C@@]2(CCCO2)C[C@H]1c1ccc(C(=O)O)cc1 (single isomer, unassigned) [Example 33, 4-((5S,7S)-8-((5-methoxy-7-methyl-1H-indol-4-yl)methyl)-1-oxa-8-azaspiro[4.5]decan-7-yl)benzoic acid or 4-((5R,7S)-8-((5-methoxy-7-methyl-1H-indol-4-yl)methyl)-1-oxa-8-azaspiro[4.5]decan-7-yl)benzoic acid]	> 500 nM	
< 10 nM		COc1cc(C)c2[nH]ccc2c1CN1CC[C@@]2(CCOC2)C[C@H]1c1ccc(C(=O)O)cc1 (single isomer, unassigned) [Example 34, 4-((5S,7S)-8-((5-methoxy-7-methyl-1H-indol-4-yl)methyl)-2-oxa-8-azaspiro[4.5]decan-7-yl)benzoic acid or 4-((5R,7S)-8-((5-methoxy-7-methyl-1H-indol-4-yl)methyl)-2-oxa-8-azaspiro[4.5]decan-7-yl)benzoic acid]	100 to 200 nM	
